Reference: ChEMBL document CHEMBL4251700, “Novel Staphyloxanthin Inhibitors with Improved Potency against Multidrug Resistant Staphylococcus aureus” (ACS Med Chem Lett, 2018)
Numbering of substitutions follows the chain as printed. The source made the active and inactive calls. No cut-off for these calls is given here.

Columns and labels:
Staphylococcus aureus [1] = assay: Induction of sensitization to immune clearance towards Staphylococcus aureus Newman infected in human whole blood assessed as bacterial killing by measuring bacterial survival after 6 hrs by serial dilution method relative to control; format: functional
[2] = molecular target: T1, 4,4'-diapophytoene desaturase (4,4'-diaponeurosporene-forming) (Staphylococcus aureus (strain MW2)) (UniProt Q8NUQ6); assay: Inhibition of CrtN in Staphylococcus aureus USA400 MW2 assessed as H2O2-induced bacterial death by measuring reduction in bacterial survival at 1 uM preincubated for 24 hrs followed by H2O2 addition measured after 30 mins by serial dilution method; details: Staphylococcus aureus subsp. aureus MW2
T1 sequence (whole entry): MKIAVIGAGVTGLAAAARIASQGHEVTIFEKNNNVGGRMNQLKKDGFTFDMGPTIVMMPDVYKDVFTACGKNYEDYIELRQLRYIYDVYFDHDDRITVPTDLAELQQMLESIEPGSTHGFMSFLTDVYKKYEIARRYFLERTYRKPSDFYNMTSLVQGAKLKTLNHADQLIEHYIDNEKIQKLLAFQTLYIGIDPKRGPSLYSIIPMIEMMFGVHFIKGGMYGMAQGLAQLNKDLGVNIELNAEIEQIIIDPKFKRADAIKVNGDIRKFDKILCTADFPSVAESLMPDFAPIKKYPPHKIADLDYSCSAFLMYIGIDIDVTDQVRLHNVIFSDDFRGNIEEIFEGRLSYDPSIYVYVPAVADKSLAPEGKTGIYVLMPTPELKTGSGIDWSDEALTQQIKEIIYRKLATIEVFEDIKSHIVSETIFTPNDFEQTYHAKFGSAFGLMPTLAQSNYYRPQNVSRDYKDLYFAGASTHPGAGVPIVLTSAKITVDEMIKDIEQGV

[3] = test system: Trichophyton mentagrophytes; assay: Antifungal activity against Trichophyton mentagrophytes after 7 days; format: functional, organism-based
Nannizzia gypsea = assay: Antifungal activity against Microsporum gypseum after 7 days by broth microdilution method; format: functional, organism-based
Staphylococcus aureus [4] = assay: Antibacterial activity against Staphylococcus aureus Newman infected in BALB/c mouse assessed as reduction of bacterial burden in liver at 0.1 mg, ip bid for 3.5 days administered 6 hrs post bacterial infection measured 84 hrs post infection relative to control; set-up: scale not given: the % may be the effect or the level left
Staphylococcus aureus [5] = assay: Antibacterial activity against linezolid-resistant Staphylococcus aureus NRS271 infected in BALB/c mouse assessed as reduction of bacterial burden in heart at 0.4 mg, ip bid administered at 24 hrs prior to bacterial infection dosed at 12 intervals for 4.5 days
Staphylococcus aureus [6] = assay: Antibacterial activity against vancomycin-intermediate Staphylococcus aureus Mu50 infected in BALB/c mouse assessed as reduction of bacterial burden in liver at 0.1 mg, ip bid for 3.5 days administered 6 hrs post bacterial infection measured 84 hrs post infection; format: functional, organism-based
[7] = Half life in human liver microsomes at 2 uM by LC-MS/MS analysis; format: ADME, microsome
Staphylococcus aureus [8] = assay: Antibacterial activity against linezolid-resistant Staphylococcus aureus NRS271 infected in BALB/c mouse assessed as reduction of bacterial burden in heart at 0.1 mg, ip bid for 3.5 days administered 6 hrs post bacterial infection measured 84 hrs post infection; format: functional; set-up: scale not given: the % may be the effect or the level left
Trichophyton rubrum = assay: Antifungal activity against Trichophyton rubrum after 7 days by broth microdilution method; format: functional, organism-based
[9] = molecular target: T2, 4,4'-diapophytoene desaturase (4,4'-diaponeurosporene-forming) (Staphylococcus aureus (strain Newman), UniProt O07855); assay: Inhibition of CrtN in Staphylococcus aureus Newman assessed as reduction in staphyloxanthin levels after 48 hrs by spectrophotometric method-based pigment inhibition assay; set-up: species or system Staphylococcus aureus subsp. aureus str. Newman
T2 sequence (O07855 whole entry): T1 sequence (whole entry) with Q500R

Staphylococcus aureus [10] = assay: Antibacterial activity against linezolid-resistant Staphylococcus aureus NRS271 infected in BALB/c mouse assessed as reduction of bacterial burden in heart at 0.4 mg, ip bid for 3.5 days administered 6 hrs post bacterial infection measured 84 hrs post infection; format: functional; set-up: scale not given: the % may be the effect or the level left
Staphylococcus aureus [11] = assay: Antibacterial activity against vancomycin-intermediate Staphylococcus aureus Mu50 infected in BALB/c mouse assessed as reduction of bacterial burden in liver at 0.1 mg, ip bid administered at 12 hrs prior to bacterial infection dosed at 12 intervals for 4.5 days; format: functional, organism-based
Staphylococcus aureus [12] = assay: Antibacterial activity against linezolid-resistant Staphylococcus aureus NRS271 infected in BALB/c mouse assessed as reduction of bacterial burden in liver at 0.4 mg, ip bid administered at 12 hrs prior to bacterial infection dosed at 12 intervals for 4.5 days; format: functional, organism-based
[13] = Cytotoxicity against HEK293T cells after 72 hrs by CCK8 assay; format: cell-based, HEK-293T; details: human
Staphylococcus aureus [14] = assay: Antibacterial activity against Staphylococcus aureus Newman infected in BALB/c mouse assessed as reduction of bacterial burden in heart at 0.4 mg, ip bid administered at 12 hrs prior to bacterial infection dosed at 12 intervals for 4.5 days relative to control; format: functional; set-up: scale not given: the % may be the effect or the level left
Staphylococcus aureus [15] = assay: Growth inhibition of methicillin-resistant Staphylococcus aureus USA400 MW2 at 0.2 mM incubated overnight measured at 30 mins interval; format: organism-based; details: 0.5 h, 200 µM
[16] = Solubility of the compound in water at 10 mg measured after 24 hrs by HPLC method; format: physicochemical
[17] = Cytotoxicity against human HepG2 cells after 72 hrs by CCK8 assay; format: cell-based
Staphylococcus aureus [18] = assay: Antibacterial activity against linezolid-resistant Staphylococcus aureus NRS271 infected in BALB/c mouse assessed as log reduction of colony forming units in liver at 0.4 mg, ip bid for 3.5 days administered 6 hrs post bacterial infection measured 84 hrs post infection; format: functional
[19] = molecular target: T3, 4,4'-diapophytoene desaturase (4,4'-diaponeurosporene-forming) (Staphylococcus aureus (strain Mu50 / ATCC 700699)) (UniProt Q99R76); assay: Inhibition of CrtN in Staphylococcus aureus Mu50 assessed as H2O2-induced bacterial death by measuring reduction in bacterial survival at 1 uM preincubated for 24 hrs followed by H2O2 addition measured after 30 mins by serial dilution method; details: Staphylococcus aureus subsp. aureus Mu50
T3 sequence (whole entry): T1 sequence (whole entry) with Q500R

Trichophyton verrucosum = assay: Antifungal activity against Trichophyton verrucosum after 7 days; format: functional, organism-based

For CN(C/C=C/C=C/c1ccc(C(F)(F)F)cc1)Cc1ccc2c(c1)OCCO2.Cl, the Survival (Staphylococcus aureus [1]) was less than 0.5%, the inhibition [2] was “Active” and the Activity [3] was “inactive”. The Activity (Nannizzia gypsea) was “inactive”, the Activity (Staphylococcus aureus [4]) was 99% and the Activity (Staphylococcus aureus [5]) was “Active”. For the same compound, the Activity (Staphylococcus aureus [6]) was “Active”, the half-life at 2 µM [7] was 7.9 min and the Activity (Staphylococcus aureus [8]) was greater than 90%. The Activity (Trichophyton rubrum) was “inactive”, the IC50 [9] was 0.0022 µM and the Activity (Staphylococcus aureus [10]) was greater than 90%. The Activity (Staphylococcus aureus [11]) was “Active”, the Activity (Staphylococcus aureus [12]) was “Active” and the CC50 at 72 h [13] was 50.3 µM. For the same compound, the Activity (Staphylococcus aureus [14]) was 89.01%, the “growth inhibition (GI)” value (Staphylococcus aureus [15]) was “Non-Toxic” and the solubility at 24 h [16] was 7900 µg/mL. For the same compound, the CC50 at 72 h [17] was 67.8 µM, the Activity (Staphylococcus aureus [18]) was “<=0.75 log10CFU” and the inhibition [19] was “Active”. For the same compound, the Activity (Trichophyton verrucosum) was “inactive”.
